Source: patent publication US11697648B2, “Fused pyrimidine pyridinone compounds as JAK inhibitors” (THERAVANCE BIOPHARMA R&D IP, LLC, priority 2019, dated 2023)

Columns and labels:
Tyk2 = Tyk2 (Homo sapiens (Human), UniProt P29597); assay: Biochemical Tyk2 kinase assay (LanthaScreen)
In short: (§1)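 GST-JAK + GFP-STAT1 peptide, HEPES pH 7.5/MgCl2/EGTA/Brij-35 buffer; cpd preincubation 1 h RT; ATP start, 1 h RT; stop with 10 mM EDTA + 2 nM Tb-anti-pSTAT1; TR-FRET 520/495. 4-parameter IC50 → pKi (Cheng-Prusoff).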

Caco-2 cell monolayers = assay: Caco-2 permeation assay; type: in vitro ADME; details: 5 μM, A-B direction, with Verapamil (25 μM)
In short: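 Passive A-to-B permeability with P-gp inhibited by verapamil (25 μM); compound at 5 μM, n=2. Both compartments sampled at t0 and t120 and quantified by LC-MS/MS, giving apparent permeability in cm/sec from flux, area and concentration.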

JAK3 = JAK3 (Homo sapiens (Human), UniProt P52333); assay: Biochemical JAK3 kinase assay (LanthaScreen); details: for JAK3 (pKi)-JAK1 (pKi): selectivity JAK3 over JAK1, difference of pKi
JAK3, sequence (P52333 whole entry): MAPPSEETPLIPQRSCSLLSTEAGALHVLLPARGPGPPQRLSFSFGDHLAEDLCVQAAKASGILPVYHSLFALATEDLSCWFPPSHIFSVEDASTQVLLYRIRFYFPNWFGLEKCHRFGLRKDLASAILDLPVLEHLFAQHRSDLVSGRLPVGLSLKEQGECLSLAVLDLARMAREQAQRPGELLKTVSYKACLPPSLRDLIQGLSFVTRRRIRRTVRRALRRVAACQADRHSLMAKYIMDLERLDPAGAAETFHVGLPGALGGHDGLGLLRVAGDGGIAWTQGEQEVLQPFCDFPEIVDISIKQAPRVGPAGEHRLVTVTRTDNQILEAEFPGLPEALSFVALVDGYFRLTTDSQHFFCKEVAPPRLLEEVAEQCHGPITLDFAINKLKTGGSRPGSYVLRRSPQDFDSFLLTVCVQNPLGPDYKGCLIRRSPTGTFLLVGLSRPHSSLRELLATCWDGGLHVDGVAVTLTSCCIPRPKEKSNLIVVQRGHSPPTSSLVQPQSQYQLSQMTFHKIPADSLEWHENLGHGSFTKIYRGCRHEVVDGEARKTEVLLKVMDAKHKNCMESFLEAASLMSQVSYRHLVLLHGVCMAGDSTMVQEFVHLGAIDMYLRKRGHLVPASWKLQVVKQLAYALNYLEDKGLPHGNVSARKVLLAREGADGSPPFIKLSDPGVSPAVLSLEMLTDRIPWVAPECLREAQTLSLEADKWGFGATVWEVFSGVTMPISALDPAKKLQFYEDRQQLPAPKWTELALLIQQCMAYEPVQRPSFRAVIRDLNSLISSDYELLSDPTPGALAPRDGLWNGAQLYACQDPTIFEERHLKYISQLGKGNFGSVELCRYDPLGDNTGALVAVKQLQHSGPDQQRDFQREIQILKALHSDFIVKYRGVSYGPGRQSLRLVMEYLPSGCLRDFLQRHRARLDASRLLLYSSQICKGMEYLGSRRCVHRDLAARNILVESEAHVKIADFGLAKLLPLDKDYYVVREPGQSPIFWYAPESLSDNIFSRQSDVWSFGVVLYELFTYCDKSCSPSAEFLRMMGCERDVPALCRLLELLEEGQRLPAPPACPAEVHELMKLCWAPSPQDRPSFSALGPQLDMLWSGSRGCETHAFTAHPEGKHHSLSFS
In short: as §1

JAK2 = JAK2 (Homo sapiens (Human), UniProt O60674); assay: Biochemical JAK2 kinase assay (LanthaScreen)
JAK2, sequence (O60674 whole entry): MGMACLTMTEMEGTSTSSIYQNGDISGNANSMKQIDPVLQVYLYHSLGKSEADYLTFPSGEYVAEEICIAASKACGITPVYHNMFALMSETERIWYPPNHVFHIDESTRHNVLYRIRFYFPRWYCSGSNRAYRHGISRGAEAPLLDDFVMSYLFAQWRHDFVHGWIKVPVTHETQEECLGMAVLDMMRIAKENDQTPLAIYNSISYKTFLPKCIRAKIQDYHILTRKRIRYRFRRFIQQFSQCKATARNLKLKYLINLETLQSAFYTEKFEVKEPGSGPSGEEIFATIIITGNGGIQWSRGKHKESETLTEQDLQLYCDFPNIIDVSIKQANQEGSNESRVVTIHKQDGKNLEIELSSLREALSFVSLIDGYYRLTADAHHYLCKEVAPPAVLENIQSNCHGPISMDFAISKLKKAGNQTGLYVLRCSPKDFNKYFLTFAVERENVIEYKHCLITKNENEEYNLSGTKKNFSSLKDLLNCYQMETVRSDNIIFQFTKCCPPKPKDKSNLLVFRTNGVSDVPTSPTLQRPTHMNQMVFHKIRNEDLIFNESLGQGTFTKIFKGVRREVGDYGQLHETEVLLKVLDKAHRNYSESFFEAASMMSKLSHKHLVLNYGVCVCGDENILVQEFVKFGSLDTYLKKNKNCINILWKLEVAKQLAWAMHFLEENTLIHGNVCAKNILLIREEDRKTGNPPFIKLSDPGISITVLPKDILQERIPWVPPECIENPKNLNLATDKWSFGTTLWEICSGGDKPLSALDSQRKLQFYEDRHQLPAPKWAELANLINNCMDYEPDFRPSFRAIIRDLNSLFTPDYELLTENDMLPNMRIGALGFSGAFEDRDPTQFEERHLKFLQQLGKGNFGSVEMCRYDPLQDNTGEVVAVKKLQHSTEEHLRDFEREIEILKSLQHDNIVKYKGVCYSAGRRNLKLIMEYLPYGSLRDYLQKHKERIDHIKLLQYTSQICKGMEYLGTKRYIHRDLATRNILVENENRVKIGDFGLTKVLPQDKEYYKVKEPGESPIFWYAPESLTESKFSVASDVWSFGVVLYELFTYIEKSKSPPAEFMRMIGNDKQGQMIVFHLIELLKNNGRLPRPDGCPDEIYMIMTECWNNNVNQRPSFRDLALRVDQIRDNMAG
In short: as §1

[1] = tested on: IL-2 stimulated STAT5 phosphorylation in Tall-1 human T cell line (JAK3); assay: Cellular JAK3 potency assay: inhibition of IL-2 stimulated pSTAT5 in Tall-1 T cells; type: cell-based; details: IL-2 stimulated pSTAT5, Tall-1 T cells
In short: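 AlphaLISA SureFire Ultra measures STAT5 Tyr694/699 phosphorylation in lysed Tall-1 human T cells. Cells were exposed to compound for 1 h at 37 °C before a 30 min IL-2 challenge (300 ng/ml final). Values are pIC50 means with standard deviation from signal-versus-concentration curves.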

JAK1 = JAK1 (Homo sapiens (Human), UniProt P23458); assay: Biochemical JAK1 kinase assay (LanthaScreen)
JAK1, sequence (P23458 whole entry): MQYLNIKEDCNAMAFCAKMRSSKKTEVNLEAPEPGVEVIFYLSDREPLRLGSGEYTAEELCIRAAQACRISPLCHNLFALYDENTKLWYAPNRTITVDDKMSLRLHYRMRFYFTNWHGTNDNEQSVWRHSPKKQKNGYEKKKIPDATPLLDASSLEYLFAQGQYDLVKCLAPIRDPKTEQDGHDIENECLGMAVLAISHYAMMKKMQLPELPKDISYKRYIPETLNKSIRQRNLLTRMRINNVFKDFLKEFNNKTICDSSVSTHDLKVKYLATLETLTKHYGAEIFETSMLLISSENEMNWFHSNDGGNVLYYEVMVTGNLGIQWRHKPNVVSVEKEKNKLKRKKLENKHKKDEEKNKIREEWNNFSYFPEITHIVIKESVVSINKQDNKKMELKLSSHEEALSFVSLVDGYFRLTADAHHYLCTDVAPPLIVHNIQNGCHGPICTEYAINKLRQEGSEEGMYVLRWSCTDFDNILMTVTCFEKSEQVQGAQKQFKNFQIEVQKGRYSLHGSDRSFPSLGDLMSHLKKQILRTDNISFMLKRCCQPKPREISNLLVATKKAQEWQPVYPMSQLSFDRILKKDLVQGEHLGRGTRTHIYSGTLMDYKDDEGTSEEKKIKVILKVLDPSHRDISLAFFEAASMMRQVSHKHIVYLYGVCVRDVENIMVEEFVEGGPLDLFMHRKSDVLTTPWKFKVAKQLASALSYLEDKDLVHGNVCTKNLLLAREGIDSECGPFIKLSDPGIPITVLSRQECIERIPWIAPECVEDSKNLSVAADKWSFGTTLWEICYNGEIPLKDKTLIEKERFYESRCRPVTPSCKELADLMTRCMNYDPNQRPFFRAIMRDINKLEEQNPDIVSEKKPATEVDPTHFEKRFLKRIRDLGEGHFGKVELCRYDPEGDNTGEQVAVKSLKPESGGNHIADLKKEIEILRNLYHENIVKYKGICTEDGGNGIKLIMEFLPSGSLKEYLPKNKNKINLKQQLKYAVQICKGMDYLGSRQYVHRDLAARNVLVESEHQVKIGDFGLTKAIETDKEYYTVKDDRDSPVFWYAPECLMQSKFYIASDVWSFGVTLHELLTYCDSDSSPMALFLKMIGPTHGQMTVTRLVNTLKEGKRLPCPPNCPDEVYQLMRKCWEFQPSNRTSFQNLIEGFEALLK
In short: as §1

[2] = Colon and plasma mouse pharmacokinetics; type: in vivo; details: male Balb/c mice, 10 mg/kg PO, ratio of the colon AUC to the plasma AUC; for Kp: mouse, colon tissue / plasma
Protocol: Assay 5: Colon and Plasma Mouse Pharmacokinetics
To 6 male Balb/c mice was administered 10 mg/kg of compound in 1% HPMC+0.1% Tween-80 by PO administration. At 0.5, 2 and 6 hours after dose administration, animals were anesthetized, and terminal blood samples were collected by cardiac puncture, followed by collection of colon contents and colon tissue.
Blood samples were collected into K2EDTA and stored on wet ice until processed to plasma by centrifugation (12000 rpm at 4° C.). Plasma samples were transferred to cluster tubes and placed on dry ice prior to freezer storage. The colon contents from each animal were collected at each terminal blood collection time point. The colon tissues were flushed with saline and patted dry. The colon and colon content tissues were homogenized using sterile water containing 0.1% formic acid 9:1 (water:tissue, v/w). The homogenized tissues and colon contents were transferred to cluster tubes and placed on dry ice prior to freezer storage. All samples were analyzed using LC/MS/MS against analytical standards.
The composite pharmacokinetic parameters of the compounds were determined by non-compartmental analysis using Phoenix WinNonlin Version 6 (Certara, St. Louis, Mo.) and using mean values from 2 animals/time point. For plasma concentrations below the quantification limit (BQL), the lowest concentration measurable or the BLOQ (below limit of quantification) was used.
A colon to plasma ratio was determined as the ratio of the colon AUC to the plasma AUC.

Tyk2, sequence (P29597 whole entry): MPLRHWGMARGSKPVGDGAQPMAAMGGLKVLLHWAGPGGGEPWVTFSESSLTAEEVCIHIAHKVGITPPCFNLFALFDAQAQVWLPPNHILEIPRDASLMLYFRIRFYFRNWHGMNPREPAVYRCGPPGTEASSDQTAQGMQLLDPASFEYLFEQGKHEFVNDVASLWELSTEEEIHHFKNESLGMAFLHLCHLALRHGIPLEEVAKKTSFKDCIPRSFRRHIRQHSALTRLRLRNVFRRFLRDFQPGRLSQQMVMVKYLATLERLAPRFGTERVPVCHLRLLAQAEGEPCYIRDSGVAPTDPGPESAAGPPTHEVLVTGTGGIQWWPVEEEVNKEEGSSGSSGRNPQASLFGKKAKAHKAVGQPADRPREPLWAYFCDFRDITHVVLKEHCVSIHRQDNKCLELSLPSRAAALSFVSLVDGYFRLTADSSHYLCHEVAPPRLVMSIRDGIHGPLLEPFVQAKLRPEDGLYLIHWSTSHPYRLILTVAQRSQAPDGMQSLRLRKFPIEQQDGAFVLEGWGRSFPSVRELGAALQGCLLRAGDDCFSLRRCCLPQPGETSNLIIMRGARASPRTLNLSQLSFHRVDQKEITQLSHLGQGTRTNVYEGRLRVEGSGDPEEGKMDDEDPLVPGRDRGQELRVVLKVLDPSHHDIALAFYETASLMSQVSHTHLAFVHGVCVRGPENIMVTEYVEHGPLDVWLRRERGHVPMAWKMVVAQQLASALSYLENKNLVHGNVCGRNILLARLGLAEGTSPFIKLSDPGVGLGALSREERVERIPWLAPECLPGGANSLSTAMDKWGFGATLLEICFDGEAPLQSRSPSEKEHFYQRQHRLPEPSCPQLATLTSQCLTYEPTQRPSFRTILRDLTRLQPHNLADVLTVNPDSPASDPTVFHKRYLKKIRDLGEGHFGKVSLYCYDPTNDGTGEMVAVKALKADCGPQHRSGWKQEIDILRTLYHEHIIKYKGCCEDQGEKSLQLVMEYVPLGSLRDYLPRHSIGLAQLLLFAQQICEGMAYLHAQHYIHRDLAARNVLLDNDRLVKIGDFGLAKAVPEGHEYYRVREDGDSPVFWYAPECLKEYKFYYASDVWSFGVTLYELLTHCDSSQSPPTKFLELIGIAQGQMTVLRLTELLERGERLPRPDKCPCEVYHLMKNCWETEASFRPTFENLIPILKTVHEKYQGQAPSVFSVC

SMILES	Tyk 2 (pKi) (Tyk2)	Caco Kp (Caco-2 cell monolayers)	JAK 3 (pKi) (JAK3)	JAK3 (pKi)-JAK1 (pKi) (JAK3)	JAK 2 (pKi) (JAK2)	Tall-1 (pIC50) [1]	JAK 1 (pKi) (JAK1)	Kp [2]	colon to plasma ratio [2]
C=CC(=O)N1CC(CCn2c(=O)ccc3cnc(Nc4ccc(N5CCN(C(=O)CCSC)CC5)cc4)nc32)C1 [Example 3, 8-(2-(1-acryloylazetidin-3-yl)ethyl)-2-((4-(4-(3-(methylthio)propanoyl)piperazin-1-yl)phenyl)amino)pyrido[2,3-d]pyrimidin-7(8H)-one]	E (E represents a pKi value of 7 or below (Ki of 100 nM or above))	A (A represents a value below 5×10^−6 cm/sec)	A (A represents a pKi value≥10 (Ki≤0.1 nM))	A (A represents a value of 3 or above)	E (E represents a pKi value of 7 or below (Ki of 100 nM or above))	B (B represents a pC50 value between 6.7 (included) and 7.5 (IC50 between 200 nM and 32 nM))	E (E represents a pKi value of 7 or below (Ki of 100 nM or above))	> 1000	–
C=CC(=O)N1CC(CCn2c(=O)ccc3cnc(Nc4cccc(CN5CCN(S(C)(=O)=O)CC5)c4)nc32)C1 [Example 6, 8-(2-(1-acryloylazetidin-3-yl)ethyl)-2-((3-((4-(methylsulfonyl)piperazin-1-yl)methyl)phenyl)amino)pyrido[2,3-d]pyrimidin-7(8H)-one]	E (E represents a pKi value of 7 or below (Ki of 100 nM or above))	A (A represents a value below 5×10^−6 cm/sec)	B (B represents pKi value between 9 and 10 (Ki between 1 nM and 0.1 nM))	A (A represents a value of 3 or above)	E (E represents a pKi value of 7 or below (Ki of 100 nM or above))	B (B represents a pC50 value between 6.7 (included) and 7.5 (IC50 between 200 nM and 32 nM))	E (E represents a pKi value of 7 or below (Ki of 100 nM or above))	> 100	–
C=CC(=O)N1CC(CCn2c(=O)ccc3cnc(Nc4ccc(N5CCN(C)CC5)nc4)nc32)C1 [Example 8, 8-(2-(1-acryloylazetidin-3-yl)ethyl)-2-((6-(4-methylpiperazin-1-yl)pyridin-3-yl)amino)pyrido[2,3-d]pyrimidin-7(8H)-one]	E (E represents a pKi value of 7 or below (Ki of 100 nM or above))	A (A represents a value below 5×10^−6 cm/sec)	B (B represents pKi value between 9 and 10 (Ki between 1 nM and 0.1 nM))	A (A represents a value of 3 or above)	E (E represents a pKi value of 7 or below (Ki of 100 nM or above))	B (B represents a pC50 value between 6.7 (included) and 7.5 (IC50 between 200 nM and 32 nM))	E (E represents a pKi value of 7 or below (Ki of 100 nM or above))	> 100	–
C=CC(=O)N1CC(CCn2c(=O)ccc3cnc(Nc4ccc(CN5CCOCC5)cc4)nc32)C1 [Example 44]	E (E represents a pKi value of 7 or below (Ki of 100 nM or above))	–	B (B represents pKi value between 9 and 10 (Ki between 1 nM and 0.1 nM))	A (A represents a value of 3 or above)	E (E represents a pKi value of 7 or below (Ki of 100 nM or above))	B (B represents a pC50 value between 6.7 (included) and 7.5 (IC50 between 200 nM and 32 nM))	E (E represents a pKi value of 7 or below (Ki of 100 nM or above))	> 50	–
C=CC(=O)N1CC(C(C)Cn2c(=O)ccc3cnc(Nc4ccc(N5CCN(C(C)=O)CC5)cc4)nc32)C1 (stereo not shown) [Example 156]	E (E represents a pKi value of 7 or below (Ki of 100 nM or above))	–	B (B represents pKi value between 9 and 10 (Ki between 1 nM and 0.1 nM))	A (A represents a value of 3 or above)	E (E represents a pKi value of 7 or below (Ki of 100 nM or above))	B (B represents a pC50 value between 6.7 (included) and 7.5 (IC50 between 200 nM and 32 nM))	E (E represents a pKi value of 7 or below (Ki of 100 nM or above))	> 14	–
C=CC(=O)N1CCN(CCn2c(=O)ccc3cnc(Nc4ccc(N5CCN(CCCOC)CC5)cc4)nc32)CC1 [Example 207]	E (E represents a pKi value of 7 or below (Ki of 100 nM or above))	B (B represents a value between 5×10^−6 and 10×10^−6 cm/sec)	B (B represents pKi value between 9 and 10 (Ki between 1 nM and 0.1 nM))	A (A represents a value of 3 or above)	E (E represents a pKi value of 7 or below (Ki of 100 nM or above))	B (B represents a pC50 value between 6.7 (included) and 7.5 (IC50 between 200 nM and 32 nM))	E (E represents a pKi value of 7 or below (Ki of 100 nM or above))	–	–
C=CC(=O)N1CCN(CCn2c(=O)ccc3cnc(Nc4ccc(N5CCN(CCOC)CC5)cc4)nc32)CC1 [Example 208]	E (E represents a pKi value of 7 or below (Ki of 100 nM or above))	B (B represents a value between 5×10^−6 and 10×10^−6 cm/sec)	B (B represents pKi value between 9 and 10 (Ki between 1 nM and 0.1 nM))	A (A represents a value of 3 or above)	E (E represents a pKi value of 7 or below (Ki of 100 nM or above))	B (B represents a pC50 value between 6.7 (included) and 7.5 (IC50 between 200 nM and 32 nM))	E (E represents a pKi value of 7 or below (Ki of 100 nM or above))	–	–
C=CC(=O)N1CCN(CCn2c(=O)ccc3cnc(Nc4cnn(CC(F)F)c4)nc32)[C@@H](CC)C1 [Example 209]	E (E represents a pKi value of 7 or below (Ki of 100 nM or above))	A (A represents a value below 5×10^−6 cm/sec)	B (B represents pKi value between 9 and 10 (Ki between 1 nM and 0.1 nM))	A (A represents a value of 3 or above)	E (E represents a pKi value of 7 or below (Ki of 100 nM or above))	B (B represents a pC50 value between 6.7 (included) and 7.5 (IC50 between 200 nM and 32 nM))	E (E represents a pKi value of 7 or below (Ki of 100 nM or above))	–	–
C=CC(=O)N1CC(CCn2c(=O)ccc3cnc(Nc4cnn(C5CCN(C(=O)CSC)CC5)c4)nc32)C1 [Example 210]	E (E represents a pKi value of 7 or below (Ki of 100 nM or above))	A (A represents a value below 5×10^−6 cm/sec)	A (A represents a pKi value≥10 (Ki≤0.1 nM))	A (A represents a value of 3 or above)	E (E represents a pKi value of 7 or below (Ki of 100 nM or above))	B (B represents a pC50 value between 6.7 (included) and 7.5 (IC50 between 200 nM and 32 nM))	E (E represents a pKi value of 7 or below (Ki of 100 nM or above))	–	–
C=CC(=O)N1C[C@H](Nc2ncnc3[nH]ccc23)CC[C@@H]1C [PF-06651600, 2-propen-1-one, 1-[(2S,5R)-2-methyl-5-(7-pyrrolo[2,3-d]pyrimidin-4-ylamino)-1-piperidinyl], reference compound]	–	–	–	–	–	–	–	–	2.8
